Where two headings read alike, the source gives them in different places.
Legend:
β-Adrenergic Receptor [1] = assay: guinea pig tracheal preparation, β-adrenergic receptor antagonist molar potency; conditions: molar potency relative to propranolol = 1
Excerpt: (§1) Cardioselective β1 -adrenergic blocking activity of the compounds of the present invention can be assessed in standard in vitro pharmacological test systems such as the spontaneously beating rabbit atrial preparation and the guinea pig tracheal preparation.
(§2) A Comparison of β-Adrenergic Receptor Antagonist Molar
(§3) Potencies Determined in Rabbit Atrial and Guinea
(§4) Pig Tracheal Preparations

[2] = system: isoproterenol-induced increased contractile force and heart rate; assay: inhibition of isoproterenol-induced increased contractile force and heart rate in the anesthetized dog; format: in vivo; conditions: Canis lupus familiaris, intravenous, isoproterenol challenge 0.2 mcg./kg. intravenous
Excerpt: A preferred compound of this invention, 1-(isopropylamino)-3-[4-(methylsulfonyl)-3-tolyloxy]-2-propanol hydrochloride, inhibits increased contractile force and heart rate in the anesthetized dog induced by a standard challenge dose of 0.2 mcg./kg.

[3] = acute toxicity (LD50) in the rat; conditions: in vivo, po
[4] = acute toxicity (LD50) in the mouse; conditions: in vivo
β-Adrenergic Receptor [5] = assay: spontaneously beating rabbit atrial preparation, β-adrenergic receptor antagonist molar potency
Excerpt: as §1, §2, §3, §4

[6] = system: spontaneous hypertensive rat; assay: blood pressure lowering in the spontaneous hypertensive rat; format: in vivo; conditions: oral dose of 100 mg./kg. body weight
Method: For the purpose of treating hypertension in a mammal, the antihypertensive process of the instant invention is carried out by systemically administering to a mammal in need of such treatment an antihypertensive effective amount of a compound selected from the group characterized by Formula I or preferably by Formula X or a pharmaceutically acceptable non-toxic acid addition salt thereof. By systemic administration, it is intended to include both oral and parenteral routes. Examples of parenteral administration are intramuscular, intravenous, intraperitoneal,rectal, and subcutaneous administration. The dosage will vary with the form of administration and the particular compound chosen. However, from about 0.3 mg. per kg. body weight to 100 mg. per kg. body weight of a compound characterized by Formula I administered in effective single or multiple dosage units is generally satisfactory. In accordance with conventional clinical practice, the antihypertensive agent is administered at a dosage substantially less than the dose of the compound thought to be effective. Thereafter, the dosage is increased by small increments until the optimum antihypertensive effect under the circumstances is reached. At effective antihypertensive dosage levels, the compounds of this invention are substantially free of harmful or deleterious side effects. […]

Compound | Potency Ratio Trachea (β-Adrenergic Receptor [1]) | ED50 ([2]; read-out: ED50, inhibition of increased contractile force) | ED50 ([2]; read-out: ED50, inhibition of increased heart rate) | LD50 [3] | LD50 ([4]; ip, read-out: intraperitoneal LD50) | LD50 ([4]; po, read-out: oral LD50) | Potency Ratio Atria (β-Adrenergic Receptor [5]; molar potency relative to propranolol = 1, rabbit atrial preparation) | Cardioselectivity Ratio: Atria/Trachea (β-Adrenergic Receptor [5]; ratio of potency ratios, rabbit atria / guinea pig trachea) | lowered blood pressure [6]
Cc1cc(OCC(O)CNC(C)C)ccc1S(C)(=O)=O.Cl (stereo not drawn) [1-(ISOPROPYLAMINO)-3-[4-(METHYLSULFONYL)-m-TOLYLOXY]-2-PROPANOL HYDROCHLORIDE] | 0.01 | 0.71 mg/kg | 2.02 mg/kg | 1790 mg/kg | 339 mg/kg | 1500 mg/kg | 0.37 | 37 | –
Cc1cc(OCC(O)CNC(C)COc2ccccc2)ccc1S(C)(=O)=O (stereo not drawn) [3-[4-(methylsulfonyl)-m-tolyloxy]-1-(1-phenoxy-2-propylamino)-2-propanol] | – | – | – | – | – | – | – | – | about 22.4 mm Hg
